Experimental data: PubChem BioAssay (NCI)
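Method: 48-hour compound exposure of cells in 96-well plates, five concentrations, linear interpolation of endpoints. Abbreviation: GI50, concentration required for 50% inhibition of growth. TGI is the concentration that stops growth completely.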

What was measured:
Test in all cases: NCI anticancer screen, dose series, 48 h
HL-60(TB) leukemia = tested on: HL-60(TB) leukemia
SN12C renal = tested on: SN12C renal
EKVX NSCLC = tested on: EKVX NSCLC
A549 NSCLC = tested on: A549 NSCLC
RPMI-8226 leukemia = tested on: RPMI-8226 leukemia
NCI-H460 lung = tested on: NCI-H460 lung
MALME-3M melanoma = tested on: MALME-3M melanoma
M14 melanoma = tested on: M14 melanoma
SNB-19 CNS = tested on: SNB-19 CNS
KM12 colon = tested on: KM12 colon

Row | SMILES | GI50 (HL-60(TB) leukemia) | TGI (HL-60(TB) leukemia) | GI50 (SN12C renal) | TGI (SN12C renal) | GI50 (EKVX NSCLC) | TGI (EKVX NSCLC) | GI50 (A549 NSCLC) | TGI (A549 NSCLC) | GI50 (RPMI-8226 leukemia) | TGI (RPMI-8226 leukemia) | GI50 (NCI-H460 lung) | TGI (NCI-H460 lung) | GI50 (MALME-3M melanoma) | TGI (MALME-3M melanoma) | GI50 (M14 melanoma) | TGI (M14 melanoma) | GI50 (SNB-19 CNS) | TGI (SNB-19 CNS) | GI50 (KM12 colon) | TGI (KM12 colon)
1 | O=S(=O)([O-])c1ccc2c(c1)-c1nc-2nc2[n-]c(nc3nc(nc4[n-]c(n1)c1ccc(S(=O)(=O)[O-])cc41)-c1cc(S(=O)(=O)[O-])ccc1-3)c1ccc(S(=O)(=O)[O-])cc21.[Cu+2].[Na+] | 0.174 µM | > 17.7 µM | > 100 µM | > 100 µM | > 60.4 µM | > 100 µM | 24.1 µM | > 100 µM | > 56.4 µM | > 74.3 µM | 4.65 µM | > 100 µM | > 100 µM | > 100 µM | > 37.4 µM | > 100 µM | > 68.4 µM | > 100 µM | 8.36 µM | > 76.8 µM
2 | O=C1CN=C(C[N+](=O)[O-])c2ccccc21 |  | > 100 µM |  | > 100 µM |  | > 100 µM |  | > 100 µM |  | > 100 µM |  | > 100 µM |  | > 100 µM |  | > 100 µM |  | > 100 µM |  | > 100 µM
3 | C[As](C)SC1OC(CO)C(O)C1O (centres undefined) | 0.454 µM |  | 0.312 µM | 1.52 µM | 0.877 µM | 10.4 µM | 2.25 µM | > 61 µM | 0.1 µM | 0.342 µM | 1.46 µM | 11.7 µM | 0.0847 µM | 0.65 µM | 0.232 µM | 0.767 µM | 8.68 µM | > 57.6 µM | 2.4 µM | 13.6 µM
4 | O=c1c2ccccc2[se]n1-c1cccnc1 |  | 91.5 µM |  | 99.4 µM |  | > 100 µM |  | > 100 µM |  | 86.9 µM |  | > 100 µM |  | 50.7 µM |  | 83.7 µM |  | > 100 µM |  | > 100 µM
5 | O=S(=O)(Nc1cc(F)cc(Cl)c1)c1ccc(-c2cnc(C3CC3)o2)cc1 | 0.761 µM | 24.2 µM | 3.49 µM | 17.4 µM | 4.86 µM | 39.1 µM | 1.9 µM | 19.7 µM | 2.74 µM | 40.6 µM | 0.64 µM | 13.8 µM | 2.53 µM | 28 µM | 0.923 µM | 15.5 µM | 1.46 µM | 16.7 µM | 0.614 µM | 16.7 µM
6 | CC(SC(C)C(=O)N/N=C/c1cccc(Cl)c1)C(=O)N/N=C\c1cccc(Cl)c1 (centres undefined) | 6.24 µM | > 100 µM | 12.1 µM | 53.9 µM | 13.3 µM | 59.7 µM | 3.3 µM | 12.3 µM | 17.9 µM | > 100 µM | 2.34 µM | 4.92 µM | 13.9 µM | 35.7 µM | 14.1 µM | 35.5 µM | 21.7 µM | > 100 µM | 11.4 µM | 30.3 µM
7 | C=C(F)C(=O)N1CCN(c2nc(OC[C@@H]3CCCN3C)nc3c2CCN(c2cccc4cccc(Cl)c24)C3)C[C@@H]1CC#N | 0.86 µM | 2.5 µM | 1.31 µM | 2.83 µM | 1.93 µM | 7.53 µM | 0.673 µM | 2.57 µM | 1.24 µM | 3.45 µM | 1.05 µM | 2.38 µM | 1.47 µM | 2.98 µM | 1.06 µM | 2.34 µM | 1.19 µM | 5.32 µM | 1.2 µM | 2.56 µM
8 | COc1ccc(OC)c(NC(=O)C(=O)NNC(=O)c2sc(NNC(C)=O)nc2C)c1 |  | 90.3 µM |  | > 100 µM |  | > 100 µM |  | > 100 µM |  | > 100 µM |  | > 100 µM |  | > 100 µM |  | > 100 µM |  | > 100 µM |  | > 100 µM
9 | CCOC(=O)/C=C/C(C(=O)/C=C/c1ccc(OC2CCCCO2)c(OC)c1)=C(O)\C=C\c1ccc(OC2CCCCO2)c(OC)c1 (centres undefined) | 3.01 µM | > 100 µM | 2.16 µM | 4.96 µM | 10.7 µM | > 100 µM | 13.5 µM | 39 µM | 4.13 µM | 17.8 µM | 11.9 µM | 50.5 µM | 2.07 µM | 5.9 µM | 3.48 µM | 15.3 µM | 5.32 µM | 25.2 µM | 4.75 µM | 19 µM
10 | Oc1[nH]c2ccccc2c1N=Nc1ccccc1Cl |  | > 100 µM |  | 97.7 µM |  | > 100 µM |  | > 100 µM |  | > 100 µM |  | > 100 µM |  | > 100 µM |  | > 100 µM |  | > 83.6 µM |  | > 100 µM
11 | COC(=O)C12C3C4C1C1C2C3C41C(=O)OC(C)(C)C (centres undefined) |  | > 100 µM |  | > 100 µM |  | > 100 µM |  | > 100 µM |  | > 72.3 µM |  | > 100 µM |  | > 100 µM |  | > 100 µM |  | > 100 µM |  | > 100 µM
12 | COC(=O)C1=C(C)N(NC(=O)c2ccccc2)C(C)(O)C12CCOC2=O (centres undefined) |  | > 100 µM |  | > 100 µM |  | > 100 µM |  | > 100 µM |  | > 100 µM |  | > 100 µM |  | 1.86 µM |  | > 100 µM |  | > 100 µM |  | > 100 µM
13 | Oc1ccc(Cl)cc1Cc1cc(Cl)cc(Cl)c1O | 4.64 µM | 28.6 µM | 3.7 µM | 21.8 µM | 3.75 µM | 62.5 µM | 5.48 µM | 47.6 µM | 3.09 µM | 11.9 µM | 3.22 µM | 13.2 µM | 3.68 µM | 18.7 µM | 4.61 µM | 23 µM | 3.83 µM | 28.9 µM | 4.34 µM | 19.8 µM
14 | CC(C)=C[C@@H]1C[C@H](C)[C@H]2CC[C@H](C)C3=C2[C@](O)(OC3=O)[C@]1(C)O | > 100 µM | > 100 µM | > 100 µM | > 100 µM | > 100 µM | > 100 µM | > 100 µM | > 100 µM | > 100 µM | > 100 µM | > 100 µM | > 100 µM | > 100 µM | > 100 µM | > 100 µM | > 100 µM | > 100 µM | > 100 µM | > 100 µM | > 100 µM
15 | C#Cc1cccc(Nc2ncnc3cc(OC)c(OCCCCCCC(=O)NO)cc23)c1 | 0.334 µM | 1.7 µM | 0.129 µM | 4.21 µM | 0.154 µM | 6.34 µM | 0.404 µM | 4.45 µM | 0.302 µM | 1.78 µM | 0.444 µM | 4.31 µM | 0.037 µM | 0.763 µM | 0.21 µM | 1.99 µM | 0.115 µM | 3.65 µM | 0.197 µM | 3.46 µM
16 | COC(=O)/C=C/c1cc(O)c2oc(-c3ccc(O)c(O)c3)c(C(=O)OC)c2c1 | 0.14 µM | 1.52 µM | 0.576 µM | 12.2 µM | 3.3 µM | 16.6 µM | 1.27 µM | 14.1 µM | 0.316 µM | 1.75 µM | 2.66 µM | 18.1 µM | 0.397 µM | 14.4 µM | 0.0698 µM | 9.39 µM | 0.356 µM | 14.2 µM | 0.439 µM | 9.38 µM
17 | C=C(CCCCC)CN1CCCC1[C@@](C)(O)CC(=O)OCC (some centres undefined) |  | > 100 µM |  | > 100 µM |  | > 100 µM |  | > 100 µM |  | > 100 µM |  | > 100 µM |  | > 100 µM |  | > 100 µM |  | > 100 µM |  | > 100 µM
18 | COc1ccc(N2C(=O)C(c3ccccc3)(c3ccccc3)C23C(=O)N(C)c2ccccc23)cc1 (centres undefined) | > 100 µM | > 100 µM | > 100 µM | > 100 µM | > 100 µM | > 100 µM | > 100 µM | > 100 µM | > 100 µM | > 100 µM | > 100 µM | > 100 µM | > 100 µM | > 100 µM | > 100 µM | > 100 µM | > 100 µM | > 100 µM | > 100 µM | > 100 µM
